Source: ChEMBL document CHEMBL1151497, “Design, synthesis and antiproliferative activity of methyl 4-Iodo-1--D-ribofuranosyl-pyrazole-3-carboxylate and related compounds” (Bioorg Med Chem Lett, 1996)

Legend:
Format in all cases: functional, cell-based
HEL 299 = test: Compound was tested for its effect on the proliferation of […] human diploid embryonal lung cell line.
WIL2-NS = test: Compound was tested for its effect on the proliferation of WIL-2-NS cell line.; settings: Homo sapiens
MT4 [1] = test: Compound was tested for its effect on the proliferation of MT-4 cells expressing the TAT gene of HTLV-1.; settings: Homo sapiens
CCRF-SB = test: Compound was tested for its effect on the proliferation of CCRF-SB human lymphoblastic B-leukemia cell line.
HT-29 = test: Compound was tested for its effect on the proliferation of HT-29 human colon adenocarcinoma.
CHO-K1 = test: Compound was tested for its effect on the proliferation of CHO-K1 Chinese hamster ovary cell line.; settings: Cricetulus griseus
Raji = test: Compound was tested for its effect on the proliferation of RAJI burkitt lymphoma cell line.; settings: Homo sapiens
ACHN = test: Compound was tested for its effect on the proliferation of ACHN human kidney adenocarcinoma
L1210 = test: Compound was tested for its effect on the proliferation of L1210 murine leukemia cell line.; settings: Mus musculus
MOLT-4 = test: Compound was tested for its effect on the proliferation of MOLT-4 human lymphoblastic T-leukemia cell line.
CCRF-CEM [2] = test: Compound was tested for its effect on the proliferation of CCRF-CEM human lymphoblastic T-leukemia cell line
C8166 = test: Compound was tested for its effect on the proliferation of C8166 cells expressing the TAT gene of HTLV-1.; settings: Homo sapiens
MT4 [3] = test: Dose required to achieve 50% protection of MT-4 cells against the cytopathic effect of HIV-1; settings: Homo sapiens
CCRF-CEM [4] = test: Compound was tested for its effect on the proliferation of CCRF-CEM human lymphoblastic T-leukemia cell line.

SMILES	IC50 (HEL 299)	IC50 (WIL2-NS)	IC50 (MT4 [1])	IC50 (CCRF-SB)	IC50 (HT-29)	IC50 (CHO-K1)	IC50 (Raji)	IC50 (ACHN)	IC50 (L1210)	IC50 (MOLT-4)	IC50 (CCRF-CEM [2])	IC50 (C8166)	EC50 (MT4 [3])	IC50 (CCRF-CEM [4])
COC(=O)c1csc([C@@H]2O[C@H](CO)[C@@H](O)[C@H]2O)n1	> 300 µM	> 300 µM	> 300 µM	> 300 µM	> 300 µM	> 300 µM	> 300 µM	> 300 µM	> 300 µM	> 300 µM	> 300 µM			
COC(=O)c1ncn([C@@H]2O[C@H](CO)[C@@H](O)[C@H]2O)n1	> 300 µM	> 300 µM	> 300 µM	> 300 µM	> 300 µM	> 300 µM	> 300 µM	> 300 µM	> 300 µM	> 300 µM	> 300 µM			
Cc1noc(-c2nn([C@@H]3O[C@H](CO)[C@@H](O)[C@H]3O)cc2I)n1	7.9 µM	3.5 µM	2.3 µM	2.8 µM	4.8 µM	8.5 µM		6.2 µM		3 µM	2.6 µM			
CCCCOC(=O)c1nn([C@@H]2O[C@H](CO)[C@@H](O)[C@H]2O)cc1I	40 µM	23 µM	25 µM	21 µM	25 µM	37 µM	17 µM			16 µM	19 µM	15 µM		
O=C(O)c1nn([C@@H]2O[C@H](CO)[C@@H](O)[C@H]2O)cc1I	> 300 µM	> 300 µM	> 300 µM	> 300 µM	> 300 µM	> 300 µM	> 300 µM	> 300 µM	> 300 µM	> 300 µM	> 300 µM	> 300 µM		
COC(=O)c1nn([C@@H]2O[C@H](CO)[C@@H](O)[C@H]2O)cc1I	4 µM	1.6 µM	1.6 µM	0.9 µM	2.8 µM	7.9 µM	0.2 µM	3.6 µM	2.4 µM	0.9 µM	1.5 µM	0.2 µM		
COC(=O)c1nn([C@@H]2O[C@H](CO)[C@@H](O)[C@H]2O)cc1I.Cc1cn([C@H]2C[C@H](N=[N+]=[N-])[C@@H](CO)O2)c(=O)[nH]c1=O													0.005 µM	
COC(=O)c1nn([C@@H]2O[C@H](CO)[C@@H](O)[C@H]2O)cc1I.OC[C@@H]1CC[C@H](n2cnc3c(O)ncnc32)O1													3 µM	
C#Cc1cn([C@@H]2O[C@H](CO)[C@@H](O)[C@H]2O)nc1C(N)=O	235 µM	> 300 µM	> 300 µM	> 300 µM	> 300 µM	> 300 µM	> 300 µM	287 µM	> 300 µM	> 300 µM	> 300 µM	22 µM		
NC(=O)c1nn([C@@H]2O[C@H](CO)[C@@H](O)[C@H]2O)cc1I	> 300 µM	> 300 µM	2.1 µM	> 300 µM	> 300 µM	> 300 µM	> 300 µM	> 300 µM	> 300 µM	9.1 µM		4 µM		2.4 µM
COc1cccc2c1C(=O)c1c(O)c3c(c(O)c1C2=O)C[C@@](O)(C(=O)CO)C[C@@H]3O[C@H]1C[C@H](N)[C@H](O)[C@H](C)O1 [DOXORUBICIN]	1.7 µM	0.2 µM	0.05 µM	0.05 µM	1.1 µM	1.2 µM	0.1 µM	0.7 µM	0.9 µM	0.05 µM	0.08 µM	0.05 µM		
NC(=O)c1ncn([C@@H]2O[C@H](CO)[C@@H](O)[C@H]2O)n1 [RIBAVIRIN]	45 µM	> 100 µM	23 µM	> 100 µM		50 µM	56 µM	> 100 µM	16.6 µM	5.7 µM	19 µM	> 100 µM		
Cc1cn([C@H]2C[C@H](N=[N+]=[N-])[C@@H](CO)O2)c(=O)[nH]c1=O [ZIDOVUDINE]													0.002 µM	
